Results on two compounds are retold here after patent publication US8628961B2, “Small molecule antagonists of phosphatidylinositol-3,4,5-triphosphate (PIP3) and uses thereof” (Tufts University, priority 2010, dated 2014).

Series [1] deals with T1, Akt PH domain (Homo sapiens (Human), UniProt P31749). Put plainly: PH domain translocation assay (GFP fusion, plasma membrane). It counts as cell-based. The conditions noted are these: PDGF stimulation. How it is done:
Cells were transfected with the corresponding GFP-fusion vectors, serum starved overnight, and incubated with 100 μM PITs or PIT-1 is for 2 hr, followed by stimulation with 100 ng/ml PDGF or 250 ng/ml PMA for 5 min. The translocation was analyzed using fluorescent microscope and was quantitated by counting the number of cells with translocated PH domains in five random fields.
To begin characterizing cellular activity of PITs, a PH domain translocation assay was performed, measuring PIP3-induced association of GFP-fused PH domains with the plasma membrane. […] Varnai P et al. (1999) J Biol Chem 274:10983-9. Several PH-domain-containing proteins, which are known to bind PIP3 specifically and efficiently, were examined. […] Oikawa T et al. (2004) Nat Cell Biol 6:420-6.
Target sequence in this assay (P31749 5-108): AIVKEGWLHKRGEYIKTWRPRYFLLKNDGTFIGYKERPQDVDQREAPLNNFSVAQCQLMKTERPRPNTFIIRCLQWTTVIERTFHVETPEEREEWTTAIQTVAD

Series [2] relates to SV40-transformed mouse adult lung fibroblasts. Put plainly: Viability of Akt1-expressing versus Akt1-3 triple knockout fibroblasts. It counts as cell-based. An excerpt:
Shaughnessy J D (2008) Nature 454:172-3; Weinstein I G (2002) Science 297:63-4. Therefore, the possibility that PIT-1 may cause preferential cell death in the cells containing elevated PIP3 levels was examined. […] Li D M et al. (1998) Proc Natl Acad Sci USA 95:15406-11. […] Neshat M S et al. (2001) Proc Natl Acad Sci USA 98:10314-9.

Series [3] is described as follows: Cell death in combination with inhibitors of mitochondrial respiration and ATP synthase. It counts as cell-based. An excerpt: Elstrom R L et al. (2004) Cancer Res 64:3892-9.
Another series relates to human cancer cells. Put plainly: Cancer cell migration, transwell migration and wound closure models. Type of series: cell-based. The conditions noted are these: model not specified. How it is done:
Two models of cell migration were used, a transwell migration model and a wound closure model. Migration of cancer and endothelial cells was evaluated using 24-transwell Boyden chamber (Costar, Bedford, Mass.) with a polystyrene membrane (6.5 mm diameter, 10 μm thickness, and 8 μm pore size). Cells were suspended in serum-free media and seeded in the upper compartment of each well (2×10^4 cells/well) in the presence or absence of different compounds at the indicated concentrations. The lower compartment contained 600 μl of serum-free culture media supplemented with growth factors. After an 8-hr incubation at 37° C., cells were fixed and stained with 0.1% crystal violet. Non-migrating cells on the upper surface of the filter were removed, and the stained cells that migrated to the lower side were photographed using a phase-contrast microscope (Nikon, Japan) in five random fields. The cells were lysed with 10% acetic acid, and colorimetric determination was made at 595 nm using Wallac Victor 3 plate reader.
Cancer or endothelial cells were seeded into fibronectin-coated 96-well plates (2×10^4 cells/well). After reaching confluence, cell monolayers were scratched with a pipette tip to obtain a “wound”. The media and dislodged cells were aspirated and replaced by fresh serum-free media in the presence of growth factors, with or without compounds at different concentrations. After an 8-hr incubation at 37° C., cells were photographed using a phase-contrast microscope in five random fields. The width of wounded cell monolayers in images was measured and the inhibition rates of migration were calculated as inhibition rate=[1−(compound-treated group/control group)]×100%, and IC50 value was determined using Origin6 software (MicroCal, LLC, Northampton, Mass.).

Series [4] deals with U87MG cells. Put plainly: Combination with Akt kinase inhibitors in U87MG cells (western blot, ATP assay). Type of series: cell-based, human. On the procedure:
U87MG cells were treated with 100 μM PIT-1, or 10 μM Akt inhibitor VIII (Calbiochem) or Akt inhibitor (Calbiochem), or 100 μM PIT-1 together with 10 μM Akt inhibitor VIII or Akt inhibitor, for 12 hr and then phosphorylation events were evaluated by western blot.
On the technique in general: Immunoblotting shows a protein as a band on a membrane.

Series [5] deals with T1, Akt PH domain. The series is described as follows: Fluorescence polarization (FP) PIP3/Akt PH domain binding assay. The conditions noted are these: 15 nM TMR-conjugated PIP3, PITs 6.25-200 μM, 30 min. An excerpt: (§1) In order to identify compounds that disrupt the interaction between PIP3 and PH domains, a high-throughput fluorescence polarization (FP)-binding assay was developed using recombinant 1-123 amino acid N-terminal fragment of human Akt1 (also referred to herein simply as Akt), encompassing the PH domain (PH123 protein), and fluorescent […] PIP3 molecule. The amino acid sequence of human Akt1 is publicly available as, for example, GenBank Accession No. NP_001014432.1 (SEQ ID NO:1), and the corresponding DNA sequence is publicly available as, for example, GenBank Accession No. NM_001014432. Briefly, 5 μM recombinant GST fusion proteins containing 1-123 a.a. N-terminal fragment of human Akt1 (PH 123) or 100 nM 441-551 a.a. region of human PDK1 were incubated with 15 nM TMR-labeled PIP3, PIP2, or PIP5 in buffer containing 50 mM Tris-HCl (pH 7.5), 150 mM NaCl, and 5 mM b-ME for 15 min at room temperature in the dark. FP values were determined using Wallac Victor 3 plate reader. For the primary screen, 50,000 diverse small molecules from Harvard Institute of Chemistry and Cell Biology were screened (iccb.med.harvard.edu). Incubations were carried out for 1 hr. For secondary assays, PIT compounds were added at various concentrations (6.25, 12.5, 25, 50, 100, 150 and 200 μM), followed by a 30 min incubation. The inhibition rates were calculated as inhibition rate=[1−(compound-treated group/control group)]×100%, and IC50 value was determined using Origin6 software (MicroCal, LLC, Northampton, Mass.).
Target sequence in this assay (P31749 1-123): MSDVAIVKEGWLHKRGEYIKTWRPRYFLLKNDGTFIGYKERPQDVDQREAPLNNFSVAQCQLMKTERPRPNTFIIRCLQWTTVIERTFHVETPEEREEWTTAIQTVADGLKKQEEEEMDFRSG
On the technique in general: In fluorescence polarisation assays a small probe gives low polarisation when free and higher when bound to something large.

The target in the next series is PDK1 PH domain (Homo sapiens (Human), UniProt O15530). Put plainly: FP PIP3/PDK1 PH domain binding assay. Conditions: 15 nM TMR-conjugated PIP3, 100 nM PDK1 PH domain, 30 min.
Chain of PDK1 PH domain (O15530 441-551): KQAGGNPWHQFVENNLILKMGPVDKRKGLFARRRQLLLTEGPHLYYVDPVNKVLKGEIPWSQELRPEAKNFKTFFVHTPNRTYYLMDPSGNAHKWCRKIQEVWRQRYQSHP
From the text: as §1

For the next series, the target named is GRP1 PH domain (Homo sapiens, UniProt O43739). The series is described as follows: FP PIP3/GRP1 PH domain binding assay. Conditions: 15 nM TMR-conjugated PIP3, 100 nM GRP1 PH domain, 30 min.
The test system of series [6] is U87MG cells. The series is described as follows: cells. Type of series: cell-based. How it is done:
Based on the critical role of PIP3-dependent […] signaling in the regulation of cell survival, the effect of PIT-1 on the cancer cell viability was tested. Cancer cells were seeded into 96-well plates (white plates for ATP assay; black plates for fluorescent assay; clear plates for MTS assay) at the density of 5-10×10^3 cells per well in 100 μl of the appropriate media. Compounds were added at a series of concentrations and incubated for different times. For the ATP assay, a luminescence-based commercial kit (CellTiter-Glo, Promega, Madison, Wis.) was used. Thirty microliters of cell lysis/ATP detection reagent was added to each well, mixed for 10 min at room temperature, and the luminescence was measured using a Wallac Victor 3 plate reader (Perkin-Elmer, Wellesley, Mass.). For the MTS assay, a CellTiter 96 AQueous Non-Radioactive Cell Proliferation Assay Kit (Promega, Madison, Wis., USA) was used. Twenty microliters of the combined MTS/PMS solution was added into each well, incubated for 4 hr at 37° C., and the absorbance at 490 nm was measured using a Wallac Victor 3 plate reader. For the Sytox cell death assay, measuring loss of plasma membrane integrity, cells were incubated with 1 μM Sytox Green reagent (Molecular Probes, Eugene, Oreg.) for 30 min at 37° C. and the fluorescence intensity was measured using Wallac Victor 3 plate reader with excitation at 485 nm and emission at 545 nm. Next, 5 μl of 20% (v/v) Triton X-100 solution was added to each well and incubated for 1 hr at 37° C., and the signal was measured again. The ratio of values (percentage of dead cells in each well) before and after Triton X-100 treatment was calculated and normalized to the relevant controls not subjected to the cytotoxic stimuli. IC50 values were determined using Origin6 software (MicroCal, LLC, Northampton, Mass.).
To measure induction of cell death by PIT-1 derivatives, U87MG cells were incubated with PITs (1.56-300 μM) for 48 hr. Cell viability was determined using ATP assay.

The nature of series [7]: Solubility (aqueous, cell media). Type of series: physicochemical. The conditions noted are these: 300 μM unencapsulated. An excerpt:
The size of the DM-PIT-1-loaded micelles was about 15 nm with a narrow size distribution.

The test system of a further series is 4T1 breast tumor. Put plainly: Syngeneic 4T1 breast cancer growth in BALB/c mice. Type of series: in vivo. How it is done: The effect of intravenous (i.v.) administration of both unencapsulated DM-PIT-1 in PBS and DM-PIT-1-M on the syngeneic 4T1 breast cancer growth in BALB/c mice was examined. 4T1 metastatic breast cancer cells were first cultured in vitro in DMEM medium containing 10% FBS and antibiotics. After re-suspension in PBS, the 4T1 cancer cells (8×10^4) were injected s.c. into axillary regions of BALB/c mice. The treatment with PIT-1 began on day 11 after inoculation of tumor cells, i.e., when tumors were palpable, but before tumors are precisely measurable (˜50 mm^3). Working solutions of all PIT-1-formulations were made in sterile 0.9% NaCl before injection into mice. […] If the tumor size reached approx. 1000 mm^3, the mice were euthanized using carbon dioxide (CO2) prior to cervical dislocation. Seven mice per group were used. The tumor volume (V) was measured every two days by microcaliper for 8 days. Tumor volume was calculated according to the formula (α×b^2)/2, where α is the longest and b is the shortest diameter of tumor, respectively. Tumor tissues were fixed in phosphate-buffered formalin, embedded in paraffin, cut in 4 μm thickness, and applied to slides. The slides were deparaffinized in xylenes using three changes for 5 min each, and hydrated gradually through graded alcohols: 100% ethanol twice for 10 min each, 95% ethanol twice for 10 min each, and then deionized water for 1 min with stirring. For antigen unmasking, slides were placed in a container, covered with 10 mM sodium citrate buffer, pH 6.0, and heated in a convection steamer for 1 hr. The slides were washed in deionized water three times for 2 min each, blocked with 5% normal goat blocking serum for 30 min, incubated with goat anti-CD31 primary antibody for 1 hr, and incubated with an Alexa Fluor 488-conjugated secondary antibody for 30 min. The slides were analyzed and photographed using a fluorescent microscope. TUNEL staining was performed using FragEL kit according to manufacturer's instructions (Calbiochem).

SMILES strings stand for the structures.

As for `O=c1[nH]c2ccccc2n1C1CCN(Cc2ccc(-c3nc4cc5[nH]cnc5cc4nc3-c3ccccc3)cc2)CC1` [Akt inhibitor VIII], the “plasma membrane translocation of Akt PH domain” value on Akt PH domain [1] is listed as “Neither Akt inhibitor X nor allosteric inhibitor VIII blocked membrane translocation”. For the same compound, in [2], the “loss of viability in Akt1-expressing versus Akt1-3 triple knockout fibroblasts” value is given as “comparable”. Further, the “cell death with oligomycin, antimycin A, rotenone” value in series [3] is “synergized”. Also, the cancer cell migration entry with human cancer cells is on record as “lack thereof”. In addition, the “combination of Akt inhibitors VIII and X” value with U87MG cells [4] is recorded as “no additive effect”.

`Cc1cc(C)cc(C(=O)NC(=S)Nc2cc([N+](=O)[O-])ccc2O)c1` [DM-PIT-1]: the half-inhibitory concentration (IC50) (as a rule, the concentration that gives 50% inhibition) on Akt PH domain [5] was 27.1 ± 3.2 µM; on PDK1 PH domain, 80.5 ± 3.1 µM; on GRP1 PH domain, 35.5 ± 3.8 µM; with U87MG cells [6] (Homo sapiens, U-87 MG, U87MG cells, 48 hr, ATP assay, read-out: Cell Viability IC50), 33.9 ± 2.2 µM. Besides, the “activity compared to PIT-1” value in the series on U87MG cells [6] (cell death in U87MG cells, cell migration, PI3K-PDK1-Akt signaling) is listed as “increased activity in these assays compared to PIT-1”. Moreover, in [7], the “precipitation in cell media” value was “significant precipitation”. Further, in the series on 4T1 breast tumor (day 8, 0.4 mg/kg/day i.v.), the “reduction of tumor volume compared to control” value amounted to 58.1%. In the series on 4T1 breast tumor (day 8, 0.4 mg/kg/day i.v.), this compound yielded a tumor volume of 380±52.3 mm^3. Moreover, the “tumor growth compared to control” value in the series with 4T1 breast tumor (i.v. daily 8 days, DM-PIT-1 0.4 mg/kg, DM-PIT-1-M 1 mg/kg, P<0.01) is listed as “significantly attenuated tumor growth”. The “tumor angiogenesis, CD31 loci” value with 4T1 breast tumor (mouse, in vivo) is “marked decrease in cancer angiogenesis”.
